According to patent publication US10670605B2, “Cysteine reactive probes and uses thereof” (The Scripps Research Institute, priority 2015, dated 2020):
One block for each compound: values may come before it.

Tests used:
Test in all cases: Competitive isoTOP-ABPP in situ (fragment-treated cells)
Type in all cases: cell-based
[1] = molecular target: cysteines in MDA-MB-231 and Ramos cells (Homo sapiens, UniProt O14980)
[2] = molecular target: T1, cysteines in MDA-MB-231 and Ramos cells (Homo sapiens, UniProt P51649)
T1 sequence (P51649 48-535): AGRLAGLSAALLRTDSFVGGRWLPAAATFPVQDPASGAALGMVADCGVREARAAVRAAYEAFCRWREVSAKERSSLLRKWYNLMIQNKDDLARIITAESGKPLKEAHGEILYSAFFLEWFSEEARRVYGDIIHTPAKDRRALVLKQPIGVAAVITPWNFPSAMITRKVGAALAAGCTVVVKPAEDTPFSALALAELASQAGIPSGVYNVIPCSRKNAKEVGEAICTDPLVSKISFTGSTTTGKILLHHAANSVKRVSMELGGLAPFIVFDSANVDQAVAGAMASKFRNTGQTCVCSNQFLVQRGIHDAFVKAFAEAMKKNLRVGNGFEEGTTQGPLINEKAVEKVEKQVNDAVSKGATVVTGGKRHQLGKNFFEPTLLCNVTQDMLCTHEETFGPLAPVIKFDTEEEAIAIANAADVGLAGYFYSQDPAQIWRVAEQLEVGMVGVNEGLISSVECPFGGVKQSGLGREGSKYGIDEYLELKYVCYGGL

[3] = molecular target: cysteines in MDA-MB-231 and Ramos cells (Homo sapiens, UniProt P53634)
Chain of cysteines in MDA-MB-231 and Ramos cells (Homo sapiens, UniProt P53634) (P53634 25-463): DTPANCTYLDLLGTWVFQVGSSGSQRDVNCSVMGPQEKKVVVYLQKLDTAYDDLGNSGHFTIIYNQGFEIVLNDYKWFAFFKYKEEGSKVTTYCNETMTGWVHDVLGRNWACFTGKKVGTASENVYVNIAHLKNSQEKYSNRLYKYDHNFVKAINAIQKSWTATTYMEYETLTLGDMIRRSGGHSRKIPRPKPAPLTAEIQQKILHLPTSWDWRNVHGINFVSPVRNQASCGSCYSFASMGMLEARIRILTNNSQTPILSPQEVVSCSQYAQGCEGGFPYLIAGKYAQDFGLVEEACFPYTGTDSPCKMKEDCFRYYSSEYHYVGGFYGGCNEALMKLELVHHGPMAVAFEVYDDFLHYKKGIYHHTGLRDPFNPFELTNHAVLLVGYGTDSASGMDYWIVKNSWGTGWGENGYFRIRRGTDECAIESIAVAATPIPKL

[4] = molecular target: T2, cysteines in MDA-MB-231 and Ramos cells (Homo sapiens, UniProt Q5JPI3)
T2 sequence (Q5JPI3 1-329): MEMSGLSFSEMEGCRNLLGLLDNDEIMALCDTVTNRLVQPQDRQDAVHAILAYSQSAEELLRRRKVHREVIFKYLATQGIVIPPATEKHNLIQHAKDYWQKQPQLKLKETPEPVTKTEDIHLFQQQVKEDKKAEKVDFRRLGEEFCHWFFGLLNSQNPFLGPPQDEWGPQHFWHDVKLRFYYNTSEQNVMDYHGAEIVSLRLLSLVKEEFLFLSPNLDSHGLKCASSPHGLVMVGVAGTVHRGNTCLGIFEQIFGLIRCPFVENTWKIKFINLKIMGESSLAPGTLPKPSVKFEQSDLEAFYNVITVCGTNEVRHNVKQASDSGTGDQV

[5] = molecular target: T3, cysteines in MDA-MB-231 and Ramos cells (Homo sapiens, UniProt Q9NX18)
T3 sequence (Q9NX18 30-166): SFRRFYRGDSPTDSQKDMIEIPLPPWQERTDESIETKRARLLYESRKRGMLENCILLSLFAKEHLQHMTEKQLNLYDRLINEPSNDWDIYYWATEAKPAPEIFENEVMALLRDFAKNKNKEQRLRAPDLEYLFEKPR

[6] = molecular target: T4, cysteines in MDA-MB-231 and Ramos cells (Homo sapiens, UniProt Q9UPQ0)
T4 sequence (Q9UPQ0 1-1083): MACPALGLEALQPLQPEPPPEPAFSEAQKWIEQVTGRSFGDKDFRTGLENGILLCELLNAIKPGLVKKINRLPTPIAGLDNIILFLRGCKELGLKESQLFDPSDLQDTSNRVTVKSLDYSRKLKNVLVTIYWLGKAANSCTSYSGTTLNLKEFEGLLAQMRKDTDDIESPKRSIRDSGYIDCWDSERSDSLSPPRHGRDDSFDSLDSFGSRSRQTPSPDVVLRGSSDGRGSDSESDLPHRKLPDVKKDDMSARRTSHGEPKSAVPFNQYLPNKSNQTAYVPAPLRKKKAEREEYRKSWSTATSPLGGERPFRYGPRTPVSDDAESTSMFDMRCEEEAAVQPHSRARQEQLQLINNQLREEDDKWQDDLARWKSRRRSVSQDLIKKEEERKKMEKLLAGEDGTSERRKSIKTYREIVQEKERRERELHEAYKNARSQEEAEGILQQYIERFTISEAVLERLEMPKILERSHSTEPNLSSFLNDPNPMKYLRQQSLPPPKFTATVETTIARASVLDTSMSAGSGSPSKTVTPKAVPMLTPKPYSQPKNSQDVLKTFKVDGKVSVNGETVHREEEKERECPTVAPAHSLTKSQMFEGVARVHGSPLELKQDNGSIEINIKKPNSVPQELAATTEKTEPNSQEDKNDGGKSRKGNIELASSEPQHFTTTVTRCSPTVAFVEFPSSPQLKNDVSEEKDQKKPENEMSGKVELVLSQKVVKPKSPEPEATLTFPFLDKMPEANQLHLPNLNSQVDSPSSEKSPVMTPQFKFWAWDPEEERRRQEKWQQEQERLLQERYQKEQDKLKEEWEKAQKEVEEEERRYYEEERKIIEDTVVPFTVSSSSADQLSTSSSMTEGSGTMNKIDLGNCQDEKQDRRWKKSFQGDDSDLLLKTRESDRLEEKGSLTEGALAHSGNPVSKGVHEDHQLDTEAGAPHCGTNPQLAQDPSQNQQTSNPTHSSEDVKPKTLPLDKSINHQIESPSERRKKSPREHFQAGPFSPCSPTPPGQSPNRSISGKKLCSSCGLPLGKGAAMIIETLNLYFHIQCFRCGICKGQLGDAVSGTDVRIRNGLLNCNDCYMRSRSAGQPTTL

[7] = molecular target: cysteines in MDA-MB-231 and Ramos cells (Homo sapiens, UniProt P27707)
Chain of cysteines in MDA-MB-231 and Ramos cells (Homo sapiens, UniProt P27707) (P27707 whole entry): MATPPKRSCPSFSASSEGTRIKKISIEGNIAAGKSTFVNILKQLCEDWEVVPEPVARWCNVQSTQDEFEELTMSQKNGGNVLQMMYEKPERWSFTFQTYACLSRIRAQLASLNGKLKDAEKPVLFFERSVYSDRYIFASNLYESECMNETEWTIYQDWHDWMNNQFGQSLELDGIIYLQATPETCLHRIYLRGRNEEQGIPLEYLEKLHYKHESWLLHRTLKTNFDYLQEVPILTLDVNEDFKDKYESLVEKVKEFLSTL

[8] = molecular target: cysteines in MDA-MB-231 and Ramos cells (Homo sapiens, UniProt P48643)
Chain of cysteines in MDA-MB-231 and Ramos cells (Homo sapiens, UniProt P48643) (P48643 whole entry): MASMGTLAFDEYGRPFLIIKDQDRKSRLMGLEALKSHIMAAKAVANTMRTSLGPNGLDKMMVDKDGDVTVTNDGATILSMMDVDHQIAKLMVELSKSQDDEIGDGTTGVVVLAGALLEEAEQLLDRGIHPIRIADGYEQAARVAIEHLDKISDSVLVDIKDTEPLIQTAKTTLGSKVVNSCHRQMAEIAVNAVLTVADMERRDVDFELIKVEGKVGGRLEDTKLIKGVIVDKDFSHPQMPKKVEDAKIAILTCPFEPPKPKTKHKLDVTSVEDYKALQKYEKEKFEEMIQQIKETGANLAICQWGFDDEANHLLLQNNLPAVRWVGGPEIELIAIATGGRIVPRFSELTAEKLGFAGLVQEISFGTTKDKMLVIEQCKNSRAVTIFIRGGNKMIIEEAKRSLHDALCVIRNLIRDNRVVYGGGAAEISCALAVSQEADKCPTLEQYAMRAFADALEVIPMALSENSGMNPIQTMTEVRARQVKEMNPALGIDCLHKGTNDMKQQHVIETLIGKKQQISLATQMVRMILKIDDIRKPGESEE

[9] = molecular target: cysteines in MDA-MB-231 and Ramos cells (Homo sapiens, UniProt Q8NBS9)
Chain of cysteines in MDA-MB-231 and Ramos cells (Homo sapiens, UniProt Q8NBS9) (Q8NBS9 33-432): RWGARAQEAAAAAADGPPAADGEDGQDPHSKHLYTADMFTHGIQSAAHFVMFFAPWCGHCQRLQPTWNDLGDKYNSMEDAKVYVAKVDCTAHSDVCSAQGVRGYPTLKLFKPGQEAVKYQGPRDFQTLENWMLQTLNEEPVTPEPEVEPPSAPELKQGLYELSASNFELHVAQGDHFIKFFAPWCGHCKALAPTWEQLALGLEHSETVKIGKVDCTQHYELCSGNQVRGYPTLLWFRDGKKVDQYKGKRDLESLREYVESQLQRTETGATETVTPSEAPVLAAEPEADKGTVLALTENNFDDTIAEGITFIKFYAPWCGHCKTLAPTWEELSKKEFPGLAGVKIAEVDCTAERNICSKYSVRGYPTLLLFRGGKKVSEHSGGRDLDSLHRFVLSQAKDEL

[10] = molecular target: cysteines in MDA-MB-231 and Ramos cells (Homo sapiens, UniProt Q96N67)
Chain of cysteines in MDA-MB-231 and Ramos cells (Homo sapiens, UniProt Q96N67) (Q96N67 whole entry): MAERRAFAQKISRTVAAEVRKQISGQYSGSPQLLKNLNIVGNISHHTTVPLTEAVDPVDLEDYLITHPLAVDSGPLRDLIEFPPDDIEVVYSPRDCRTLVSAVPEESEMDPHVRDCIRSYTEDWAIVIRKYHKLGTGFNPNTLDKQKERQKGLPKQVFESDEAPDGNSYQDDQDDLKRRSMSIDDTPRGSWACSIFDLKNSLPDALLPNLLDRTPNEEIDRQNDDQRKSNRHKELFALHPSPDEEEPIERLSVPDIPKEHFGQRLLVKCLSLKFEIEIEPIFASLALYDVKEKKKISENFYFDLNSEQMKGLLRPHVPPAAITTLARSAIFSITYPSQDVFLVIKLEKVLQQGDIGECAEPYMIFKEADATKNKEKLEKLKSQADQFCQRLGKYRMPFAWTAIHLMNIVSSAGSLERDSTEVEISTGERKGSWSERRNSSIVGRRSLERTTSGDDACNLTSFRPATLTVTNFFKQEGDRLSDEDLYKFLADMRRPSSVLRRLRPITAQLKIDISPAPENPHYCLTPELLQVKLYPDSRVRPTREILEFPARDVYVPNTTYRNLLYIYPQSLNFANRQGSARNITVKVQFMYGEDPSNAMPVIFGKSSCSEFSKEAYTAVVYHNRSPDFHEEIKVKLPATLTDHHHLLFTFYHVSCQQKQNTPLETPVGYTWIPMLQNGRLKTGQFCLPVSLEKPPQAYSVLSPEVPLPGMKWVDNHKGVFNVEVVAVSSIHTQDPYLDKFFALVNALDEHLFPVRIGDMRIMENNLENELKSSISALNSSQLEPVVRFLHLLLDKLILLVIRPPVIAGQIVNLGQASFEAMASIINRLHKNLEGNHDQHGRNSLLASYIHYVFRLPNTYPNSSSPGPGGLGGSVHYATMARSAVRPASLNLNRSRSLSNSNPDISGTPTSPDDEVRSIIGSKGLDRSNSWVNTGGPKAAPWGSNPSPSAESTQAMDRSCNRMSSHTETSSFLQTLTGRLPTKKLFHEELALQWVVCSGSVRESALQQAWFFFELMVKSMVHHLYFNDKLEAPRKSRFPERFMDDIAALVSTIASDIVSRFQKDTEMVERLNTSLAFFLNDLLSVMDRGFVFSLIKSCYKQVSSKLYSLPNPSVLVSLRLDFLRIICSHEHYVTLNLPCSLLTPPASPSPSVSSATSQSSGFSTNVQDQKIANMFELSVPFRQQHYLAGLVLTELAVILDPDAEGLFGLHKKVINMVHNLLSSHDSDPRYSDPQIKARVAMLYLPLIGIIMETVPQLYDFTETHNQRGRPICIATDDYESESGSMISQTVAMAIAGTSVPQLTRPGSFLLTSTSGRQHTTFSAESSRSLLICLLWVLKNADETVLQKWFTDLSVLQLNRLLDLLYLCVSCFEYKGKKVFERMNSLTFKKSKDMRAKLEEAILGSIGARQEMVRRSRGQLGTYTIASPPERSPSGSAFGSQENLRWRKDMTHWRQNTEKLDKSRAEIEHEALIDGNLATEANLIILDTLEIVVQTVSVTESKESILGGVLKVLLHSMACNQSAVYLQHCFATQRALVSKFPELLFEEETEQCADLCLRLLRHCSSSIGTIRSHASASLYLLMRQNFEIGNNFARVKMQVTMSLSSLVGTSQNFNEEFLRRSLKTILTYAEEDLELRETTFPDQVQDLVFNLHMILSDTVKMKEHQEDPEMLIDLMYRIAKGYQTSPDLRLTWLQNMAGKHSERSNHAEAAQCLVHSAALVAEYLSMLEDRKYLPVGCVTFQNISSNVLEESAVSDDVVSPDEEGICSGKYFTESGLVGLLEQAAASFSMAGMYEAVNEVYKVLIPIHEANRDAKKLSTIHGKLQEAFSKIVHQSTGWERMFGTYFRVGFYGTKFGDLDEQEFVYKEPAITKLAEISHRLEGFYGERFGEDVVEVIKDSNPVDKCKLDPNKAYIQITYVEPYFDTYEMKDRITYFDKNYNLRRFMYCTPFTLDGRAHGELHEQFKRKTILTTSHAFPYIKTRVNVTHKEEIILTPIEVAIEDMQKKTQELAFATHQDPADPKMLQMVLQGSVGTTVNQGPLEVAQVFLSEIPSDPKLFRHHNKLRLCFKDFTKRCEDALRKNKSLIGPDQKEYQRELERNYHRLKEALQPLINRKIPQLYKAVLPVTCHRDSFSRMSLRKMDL

Chain of cysteines in MDA-MB-231 and Ramos cells (Homo sapiens, UniProt O14980) (O14980 whole entry): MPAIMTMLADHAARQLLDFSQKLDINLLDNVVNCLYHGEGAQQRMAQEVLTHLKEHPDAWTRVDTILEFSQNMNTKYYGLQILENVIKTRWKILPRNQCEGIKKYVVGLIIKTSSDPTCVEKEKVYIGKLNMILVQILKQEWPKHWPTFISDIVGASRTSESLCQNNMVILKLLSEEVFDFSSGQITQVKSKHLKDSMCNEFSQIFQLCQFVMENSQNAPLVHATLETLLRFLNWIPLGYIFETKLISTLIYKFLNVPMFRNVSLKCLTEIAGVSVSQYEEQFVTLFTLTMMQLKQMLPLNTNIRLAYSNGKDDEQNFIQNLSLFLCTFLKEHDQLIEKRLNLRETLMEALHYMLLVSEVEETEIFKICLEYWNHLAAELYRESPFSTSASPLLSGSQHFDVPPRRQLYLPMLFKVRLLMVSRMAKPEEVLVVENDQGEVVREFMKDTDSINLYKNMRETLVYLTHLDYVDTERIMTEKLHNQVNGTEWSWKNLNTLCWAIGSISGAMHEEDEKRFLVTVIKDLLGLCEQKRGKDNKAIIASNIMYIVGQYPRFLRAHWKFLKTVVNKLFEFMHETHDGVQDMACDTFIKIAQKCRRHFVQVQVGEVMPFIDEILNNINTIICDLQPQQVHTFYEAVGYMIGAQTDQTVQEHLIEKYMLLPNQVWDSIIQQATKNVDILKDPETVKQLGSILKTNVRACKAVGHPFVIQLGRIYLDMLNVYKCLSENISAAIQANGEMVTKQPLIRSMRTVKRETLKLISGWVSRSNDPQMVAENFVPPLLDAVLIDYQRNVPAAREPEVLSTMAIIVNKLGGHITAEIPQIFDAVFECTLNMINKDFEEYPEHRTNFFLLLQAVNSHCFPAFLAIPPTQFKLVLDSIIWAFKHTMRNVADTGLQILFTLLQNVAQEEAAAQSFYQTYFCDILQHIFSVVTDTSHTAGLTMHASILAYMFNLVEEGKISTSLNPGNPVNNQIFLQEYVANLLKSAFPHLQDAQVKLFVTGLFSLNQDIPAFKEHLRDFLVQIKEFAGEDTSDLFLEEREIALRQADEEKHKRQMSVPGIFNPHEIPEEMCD

SMILES: COc1ccc2c(c1)CCCN2C(=O)CCl [compound 2]
isoTOP-ABPP reactivity O14980_0528 XPO1 ([1]; 200 μM, insitu, 231): 20.0
isoTOP-ABPP reactivity P51649_C340 ALDH5A1 ([2]; 200 μM, insitu, 231): 1.9
isoTOP-ABPP reactivity P53634_C258 CTSC ([3]; 200 μM, insitu, 231): 0.9
isoTOP-ABPP reactivity Q5JPI3_C308 C3orf38 ([4]; 200 μM, insitu, 231): 2.9
isoTOP-ABPP reactivity Q9NX18_C83 SDHAF2 ([5]; 200 μM, insitu, 231): 3.1
isoTOP-ABPP reactivity Q9UPQ0_C140 LIMCH1 ([6]; 200 μM, insitu, 231): 20.0

SMILES: COc1ccc(C2CC(c3cccs3)=NN2C(=O)CCl)cc1 (centres unmarked) [compound 4]
isoTOP-ABPP reactivity O14980_0528 XPO1 ([1]; 100 μM in situ 231): 1.9
isoTOP-ABPP reactivity P27707_C9 DCK ([7]; 100 μM in situ 231): 1.4
isoTOP-ABPP reactivity P48643_C253 CCT5 ([8]; 100 μM in situ 231): 0.8
isoTOP-ABPP reactivity P51649_C340 ALDH5A1 ([2]; 100 μM in situ 231): 1.0
isoTOP-ABPP reactivity P53634_C258 CTSC ([3]; 100 μM in situ 231): 1.2
isoTOP-ABPP reactivity Q8NBS9_C350 TXNDC5 ([9]; 100 μM in situ 231): 2.4
isoTOP-ABPP reactivity Q96N67_C2125 DOCK7 ([10]; 100 μM in situ 231): 4.1
isoTOP-ABPP reactivity Q9NX18_C83 SDHAF2 ([5]; 100 μM in situ 231): 3.0

SMILES: COc1cc2c(cc1OC)CN(C(=O)CCl)CC2 [compound 8]
isoTOP-ABPP reactivity P48643_C253 CCT5 ([8]; 200 μM, insitu, 231): 0.8
isoTOP-ABPP reactivity P51649_C340 ALDH5A1 ([2]; 200 μM, insitu, 231): 2.7
isoTOP-ABPP reactivity Q96N67_C2125 DOCK7 ([10]; 200 μM, insitu, 231): 5.4
isoTOP-ABPP reactivity Q9UPQ0_C140 LIMCH1 ([6]; 200 μM, insitu, 231): 20.0

SMILES: O=C(CCl)N1CCC(Cc2ccccc2)CC1 [compound 9]
isoTOP-ABPP reactivity P27707_C9 DCK ([7]; 200 μM, insitu, 231): 4.9
isoTOP-ABPP reactivity Q8NBS9_C350 TXNDC5 ([9]; 200 μM, insitu, 231): 1.7

The next lines start with the values.

isoTOP-ABPP ratio O14980_C528 ([1]; 200 μM, insitu, 231): 1.3
isoTOP-ABPP ratio O14980_C528 ([1]; 200 μM, insitu, ramos): 0.7
isoTOP-ABPP ratio P27707_C9 ([7]; 200 μM, insitu, 231): 1.9
isoTOP-ABPP ratio P27707_C9 ([7]; 200 μM, insitu, ramos): 1.7
isoTOP-ABPP ratio P48643_C253 ([8]; 200 μM, insitu, ramos): 0.9
isoTOP-ABPP ratio P51649_C340 ([2]; 200 μM, insitu, 231): 13.4
isoTOP-ABPP ratio P51649_C340 ([2]; 200 μM, insitu, ramos): 20.0
isoTOP-ABPP ratio, cysteine P53634_C258 ([3]; 200 μM, insitu, 231): 5.5
isoTOP-ABPP ratio Q8NBS9_C350 ([9]; 200 μM, insitu, ramos): 1.4
isoTOP-ABPP ratio Q9NX18_C83 ([5]; 200 μM, insitu, 231): 4.4
isoTOP-ABPP ratio Q9UPQ0_C140 ([6]; 200 μM, insitu, 231): 3.9
SMILES: O=C(CCl)N1CCN(S(=O)(=O)c2ccccc2F)CC1 [compound 10]

isoTOP-ABPP ratio O14980_C528 ([1]; 100 μM in situ 231): 0.7
isoTOP-ABPP ratio P27707_C9 ([7]; 100 μM in situ 231): 0.5
isoTOP-ABPP ratio P48643_C253 ([8]; 100 μM in situ 231): 0.6
isoTOP-ABPP ratio, cysteine Q5JPI3_C308 ([4]; 100 μM in situ 231): 1.0
isoTOP-ABPP ratio Q8NBS9_C350 ([9]; 100 μM in situ 231): 3.4
isoTOP-ABPP ratio Q9NX18_C83 ([5]; 100 μM in situ 231): 1.1
isoTOP-ABPP ratio Q9UPQ0_C140 ([6]; 100 μM in situ 231): 1.0
SMILES: Cn1cc(S(=O)(=O)N2CCOCC2)cc1C(=O)NC(=O)CCl [compound 11]

isoTOP-ABPP ratio P27707_C9 ([7]; 200 μM, insitu, 231): 1.4
isoTOP-ABPP ratio P48643_C253 ([8]; 200 μM, insitu, 231): 5.1
isoTOP-ABPP ratio P51649_C340 ([2]; 200 μM, insitu, 231): 20.0
isoTOP-ABPP ratio, cysteine P53634_C258 ([3]; 200 μM, insitu, 231): 13.4
isoTOP-ABPP ratio Q8NBS9_C350 ([9]; 200 μM, insitu, 231): 9.4
isoTOP-ABPP ratio Q9NX18_C83 ([5]; 200 μM, insitu, 231): 20.0
isoTOP-ABPP ratio Q9UPQ0_C140 ([6]; 200 μM, insitu, 231): 1.9
SMILES: O=C(CCl)NC(=O)NC12CC3CC(CC(C3)C1)C2 [compound 12]

isoTOP-ABPP ratio O14980_C528 ([1]; 200 μM, insitu, 231): 1.1
isoTOP-ABPP ratio O14980_C528 ([1]; 200 μM, insitu, ramos): 1.1
isoTOP-ABPP ratio P27707_C9 ([7]; 200 μM, insitu, 231): 1.0
isoTOP-ABPP ratio P27707_C9 ([7]; 200 μM, insitu, ramos): 1.3
isoTOP-ABPP ratio P51649_C340 ([2]; 200 μM, insitu, 231): 1.1
isoTOP-ABPP ratio P51649_C340 ([2]; 200 μM, insitu, ramos): 1.3
isoTOP-ABPP ratio, cysteine P53634_C258 ([3]; 200 μM, insitu, 231): 1.6
isoTOP-ABPP ratio, cysteine Q5JPI3_C308 ([4]; 200 μM, insitu, 231): 1.1
isoTOP-ABPP ratio, cysteine Q5JPI3_C308 ([4]; 200 μM, insitu, ramos): 1.7
isoTOP-ABPP ratio Q8NBS9_C350 ([9]; 200 μM, insitu, 231): 1.3
isoTOP-ABPP ratio Q9UPQ0_C140 ([6]; 200 μM, insitu, 231): 1.1
SMILES: O=C(CCl)NCCc1c[nH]c2ccccc12 [compound 13]
